# Measurements as given in BindingDB's records for doi:10.1016/s0028-3908(05)80009-7 (Universit&Eacute, 1994).
# Where a SMILES comes first, the peptide text is derived from it. [ ]: non-standard residue; d: D form. ξ: configuration not given here. Ile(3ξ) = CCC(C)[C@H](N)C(=O)O
# Target: T1, Pituitary adenylate cyclase-activating polypeptide (Rattus norvegicus, UniProt P13589)
# T1 sequence (P13589 whole entry): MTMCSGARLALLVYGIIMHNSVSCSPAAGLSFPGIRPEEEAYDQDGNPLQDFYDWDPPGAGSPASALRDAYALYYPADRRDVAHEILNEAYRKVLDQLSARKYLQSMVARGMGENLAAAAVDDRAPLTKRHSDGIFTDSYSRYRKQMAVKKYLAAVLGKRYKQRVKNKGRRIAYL
row,Ki,Structure (SMILES)
1,3 nM,CNC(=O)[C@H](Cc1ccc(O)cc1)NC(=O)[C@H](CCCN=C(N)N)NC(=O)[C@H](CCCCN)NC(=O)CNC(=O)[C@H](CC(C)C)NC(=O)[C@@H](NC(=O)[C@H](C)NC(=O)[C@H](C)NC(=O)[C@H](CC(C)C)NC(=O)[C@H](Cc1ccc(O)cc1)NC(=O)[C@H](CCCCN)NC(=O)[C@H](CCCCN)NC(=O)[C@@H](NC(=O)[C@H](C)NC(=O)[C@H](CCSC)NC(=O)[C@H](CCC(N)=O)NC(=O)[C@H](CCCCN)NC(=O)[C@H](CCCN=C(N)N)NC(=O)[C@H](Cc1ccc(O)cc1)NC(=O)[C@H](CCCN=C(N)N)NC(=O)[C@H](CO)NC(=O)[C@H](Cc1ccc(O)cc1)NC(=O)[C@H](CO)NC(=O)[C@H](CC(=O)O)NC(=O)[C@@H](NC(=O)[C@@H](N)Cc1ccccc1)[C@@H](C)O)C(C)C)C(C)C [PACAP(6-31)] (H-FTDSYSRYRKQMAVKKYLAAVLGKRY-NHMe)
2,0.3 nM,CC[C@H](C)[C@H](NC(=O)CNC(=O)[C@H](CC(=O)O)NC(=O)[C@H](CO)NC(=O)[C@@H](N)Cc1cnc[nH]1)C(=O)N[C@@H](Cc1ccccc1)C(=O)N[C@H](C(=O)N[C@@H](CC(=O)O)C(=O)N[C@@H](CO)C(=O)N[C@@H](Cc1ccc(O)cc1)C(=O)N[C@@H](CO)C(=O)N[C@@H](CCCNC(=N)N)C(=O)N[C@@H](Cc1ccc(O)cc1)C(=O)N[C@@H](CCCNC(=N)N)C(=O)N[C@@H](CCCCN)C(=O)N[C@@H](CCC(N)=O)C(=O)N[C@@H](CCSC)C(=O)N[C@@H](C)C(=O)N[C@H](C(=O)N[C@@H](CCCCN)C(=O)N[C@@H](CCCCN)C(=O)N[C@@H](Cc1ccc(O)cc1)C(=O)N[C@@H](CC(C)C)C(=O)N[C@@H](C)C(=O)N[C@@H](C)C(=O)N[C@H](C(=O)N[C@@H](CC(C)C)C(=O)NCC(=O)N[C@@H](CCCCN)C(=O)N[C@@H](CCCNC(=N)N)C(=O)N[C@@H](Cc1ccc(O)cc1)C(=O)N[C@@H](CCCCN)C(=O)N[C@@H](CCC(N)=O)C(=O)N[C@@H](CCCNC(=N)N)C(=O)N[C@H](C(=O)N[C@@H](CCCCN)C(=O)N[C@@H](CC(N)=O)C(=O)N[C@@H](CCCCN)C(N)=O)C(C)C)C(C)C)C(C)C)[C@@H](C)O [PACAP]
3,1 nM,CC[C@H](C)[C@H](NC(=O)CNC(=O)[C@H](CC(=O)O)NC(=O)[C@H](CO)NC(=O)[C@H](Cc1cnc[nH]1)NC(C)=O)C(=O)N[C@@H](Cc1ccccc1)C(=O)N[C@H](C(=O)N[C@@H](CC(=O)O)C(=O)N[C@@H](CO)C(=O)N[C@@H](Cc1ccc(O)cc1)C(=O)N[C@@H](CO)C(=O)N[C@@H](CCCNC(=N)N)C(=O)N[C@@H](Cc1ccc(O)cc1)C(=O)N[C@@H](CCCNC(=N)N)C(=O)N[C@@H](CCCCN)C(=O)N[C@@H](CCC(N)=O)C(=O)N[C@@H](CCSC)C(=O)N[C@@H](C)C(=O)N[C@H](C(=O)N[C@@H](CCCCN)C(=O)N[C@@H](CCCCN)C(=O)N[C@@H](Cc1ccc(O)cc1)C(=O)N[C@@H](CC(C)C)C(=O)N[C@@H](C)C(=O)N[C@@H](C)C(=O)N[C@H](C(=O)N[C@@H](CC(C)C)C(N)=O)C(C)C)C(C)C)[C@@H](C)O [[AcHis1]PACAP(1-27)]
4,0.3 nM,CC[C@H](C)[C@H](NC(=O)CNC(=O)[C@H](CC(=O)O)NC(=O)[C@H](C)NC(=O)[C@@H](N)Cc1cnc[nH]1)C(=O)N[C@@H](Cc1ccccc1)C(=O)N[C@H](C(=O)N[C@@H](CC(=O)O)C(=O)N[C@@H](CO)C(=O)N[C@@H](Cc1ccc(O)cc1)C(=O)N[C@@H](CO)C(=O)N[C@@H](CCCNC(=N)N)C(=O)N[C@@H](Cc1ccc(O)cc1)C(=O)N[C@@H](CCCNC(=N)N)C(=O)N[C@@H](CCCCN)C(=O)N[C@@H](CCC(N)=O)C(=O)N[C@@H](CCSC)C(=O)N[C@@H](C)C(=O)N[C@H](C(=O)N[C@@H](CCCCN)C(=O)N[C@@H](CCCCN)C(=O)N[C@@H](Cc1ccc(O)cc1)C(=O)N[C@@H](CC(C)C)C(=O)N[C@@H](C)C(=O)N[C@@H](C)C(=O)N[C@H](C(=O)N[C@@H](CC(C)C)C(N)=O)C(C)C)C(C)C)[C@@H](C)O [[Ala2]PACAP(1-27)]
5,1000 nM,CC[C@H](C)[C@H](NC(=O)CNC(=O)[C@H](CC(=O)O)NC(=O)[C@H](CCCN=C(N)N)NC(=O)[C@@H](N)Cc1cnc[nH]1)C(=O)N[C@@H](Cc1ccccc1)C(=O)N[C@H](C(=O)N[C@@H](CC(=O)O)C(=O)N[C@@H](CO)C(=O)N[C@@H](Cc1ccc(O)cc1)C(=O)N[C@@H](CO)C(=O)N[C@@H](CCCN=C(N)N)C(=O)N[C@@H](Cc1ccc(O)cc1)C(=O)N[C@@H](CCCN=C(N)N)C(=O)N[C@@H](CCCCN)C(=O)N[C@@H](CCC(N)=O)C(=O)N[C@@H](CCSC)C(=O)N[C@@H](C)C(=O)N[C@H](C(=O)N[C@@H](CCCCN)C(=O)N[C@@H](CCCCN)C(=O)N[C@@H](Cc1ccc(O)cc1)C(=O)N[C@@H](CC(C)C)C(=O)N[C@@H](C)C(=O)N[C@@H](C)C(=O)N[C@H](C(=O)N[C@@H](CC(C)C)C(N)=O)C(C)C)C(C)C)[C@@H](C)O [[Arg2]PACAP(1-27)]
6,10 nM,CC[C@H](C)[C@H](NC(=O)CNC(=O)[C@H](CC(=O)O)NC(=O)[C@H](CCCN=C(N)N)NC(=O)[C@@H](N)Cc1cnc[nH]1)C(=O)N[C@@H](Cc1ccccc1)C(=O)N[C@H](C(=O)N[C@@H](CC(=O)O)C(=O)N[C@@H](CO)C(=O)N[C@@H](Cc1ccc(O)cc1)C(=O)N[C@@H](CO)C(=O)N[C@@H](CCCN=C(N)N)C(=O)N[C@@H](Cc1ccc(O)cc1)C(=O)N[C@@H](CCCN=C(N)N)C(=O)N[C@@H](CCCCN)C(=O)N[C@@H](CCC(N)=O)C(=O)N[C@@H](CCSC)C(=O)N[C@@H](C)C(=O)N[C@H](C(=O)N[C@@H](CCCCN)C(=O)N[C@@H](CCCCN)C(=O)N[C@@H](Cc1ccc(O)cc1)C(=O)N[C@@H](CC(C)C)C(=O)N[C@@H](C)C(=O)N[C@@H](C)C(=O)N[C@H](C(=O)N[C@@H](CC(C)C)C(=O)NCC(=O)N[C@@H](CCCCN)C(=O)N[C@@H](CCCN=C(N)N)C(=O)N[C@@H](Cc1ccc(O)cc1)C(=O)N[C@@H](CCCCN)C(=O)N[C@@H](CCC(N)=O)C(=O)N[C@@H](CCCN=C(N)N)C(=O)N[C@H](C(=O)N[C@@H](CCCCN)C(=O)N[C@@H](CC(N)=O)C(=O)N[C@@H](CCCCN)C(N)=O)C(C)C)C(C)C)C(C)C)[C@@H](C)O [[Arg2]PACAP(1-38)]
7,4000 nM,CC[C@H](C)[C@H](NC(=O)CNC(=O)[C@H](CC(N)=O)NC(=O)[C@H](CO)NC(=O)[C@@H](N)Cc1cnc[nH]1)C(=O)N[C@@H](Cc1ccccc1)C(=O)N[C@H](C(=O)N[C@@H](CC(=O)O)C(=O)N[C@@H](CO)C(=O)N[C@@H](Cc1ccc(O)cc1)C(=O)N[C@@H](CO)C(=O)N[C@@H](CCCNC(=N)N)C(=O)N[C@@H](Cc1ccc(O)cc1)C(=O)N[C@@H](CCCNC(=N)N)C(=O)N[C@@H](CCCCN)C(=O)N[C@@H](CCC(N)=O)C(=O)N[C@@H](CCSC)C(=O)N[C@@H](C)C(=O)N[C@H](C(=O)N[C@@H](CCCCN)C(=O)N[C@@H](CCCCN)C(=O)N[C@@H](Cc1ccc(O)cc1)C(=O)N[C@@H](CC(C)C)C(=O)N[C@@H](C)C(=O)N[C@@H](C)C(=O)N[C@H](C(=O)N[C@@H](CC(C)C)C(N)=O)C(C)C)C(C)C)[C@@H](C)O [[Asn3]PACAP(1-27)]
8,800 nM,CCC(C)[C@H](NC(=O)CNC(=O)[C@H](CC(=O)O)NC(=O)[C@@H](Cc1ccccc1)NC(=O)[C@@H](N)Cc1cnc[nH]1)C(=O)N[C@@H](Cc1ccccc1)C(=O)N[C@H](C(=O)N[C@@H](CC(=O)O)C(=O)N[C@@H](CO)C(=O)N[C@@H](Cc1ccc(O)cc1)C(=O)N[C@@H](CO)C(=O)N[C@@H](CCCN=C(N)N)C(=O)N[C@@H](Cc1ccc(O)cc1)C(=O)N[C@@H](CCCN=C(N)N)C(=O)N[C@@H](CCCCN)C(=O)N[C@@H](CCC(N)=O)C(=O)N[C@@H](CCSC)C(=O)N[C@@H](C)C(=O)N[C@H](C(=O)N[C@@H](CCCCN)C(=O)N[C@@H](CCCCN)C(=O)N[C@@H](Cc1ccc(O)cc1)C(=O)N[C@@H](CC(C)C)C(=O)N[C@@H](C)C(=O)N[C@@H](C)C(=O)N[C@H](C(=O)N[C@@H](CC(C)C)C(N)=O)C(C)C)C(C)C)[C@@H](C)O (stereo partly drawn) [[D-Phe2]PACAP-27]
9,8 nM,CCC(C)[C@H](NC(=O)CNC(=O)[C@H](CC(=O)O)NC(=O)[C@@H](Cc1ccccc1)NC(=O)[C@@H](N)Cc1cnc[nH]1)C(=O)N[C@@H](Cc1ccccc1)C(=O)N[C@H](C(=O)N[C@@H](CC(=O)O)C(=O)N[C@@H](CO)C(=O)N[C@@H](Cc1ccc(O)cc1)C(=O)N[C@@H](CO)C(=O)N[C@@H](CCCN=C(N)N)C(=O)N[C@@H](Cc1ccc(O)cc1)C(=O)N[C@@H](CCCN=C(N)N)C(=O)N[C@@H](CCCCN)C(=O)N[C@@H](CCC(N)=O)C(=O)N[C@@H](CCSC)C(=O)N[C@@H](C)C(=O)N[C@H](C(=O)N[C@@H](CCCCN)C(=O)N[C@@H](CCCCN)C(=O)N[C@@H](Cc1ccc(O)cc1)C(=O)N[C@@H](CC(C)C)C(=O)N[C@@H](C)C(=O)N[C@@H](C)C(=O)N[C@H](C(=O)N[C@@H](CC(C)C)C(=O)NCC(=O)N[C@@H](CCCCN)C(=O)N[C@@H](CCCN=C(N)N)C(=O)N[C@@H](Cc1ccc(O)cc1)C(=O)N[C@@H](CCCCN)C(=O)N[C@@H](CCC(N)=O)C(=O)N[C@@H](CCCN=C(N)N)C(=O)N[C@H](C(=O)N[C@@H](CCCCN)C(=O)N[C@@H](CC(N)=O)C(=O)N[C@@H](CCCCN)C(N)=O)C(C)C)C(C)C)C(C)C)[C@@H](C)O (stereo partly drawn) [[D-Phe2]PACAP-38] (H-H[dF]DG[Ile(3ξ)]FTDSYSRYRKQMAVKKYLAAVLGKRYKQRVKNK-NH2)
10,8 nM,CC[C@H](C)[C@H](NC(=O)CNC(=O)[C@H](CC(=O)O)NC(=O)[C@@H](C)NC(=O)[C@@H](N)Cc1cnc[nH]1)C(=O)N[C@@H](Cc1ccccc1)C(=O)N[C@H](C(=O)N[C@@H](CC(=O)O)C(=O)N[C@@H](CO)C(=O)N[C@@H](Cc1ccc(O)cc1)C(=O)N[C@@H](CO)C(=O)N[C@@H](CCCN=C(N)N)C(=O)N[C@@H](Cc1ccc(O)cc1)C(=O)N[C@@H](CCCN=C(N)N)C(=O)N[C@@H](CCCCN)C(=O)N[C@@H](CCC(N)=O)C(=O)N[C@@H](CCSC)C(=O)N[C@@H](C)C(=O)N[C@H](C(=O)N[C@@H](CCCCN)C(=O)N[C@@H](CCCCN)C(=O)N[C@@H](Cc1ccc(O)cc1)C(=O)N[C@@H](CC(C)C)C(=O)N[C@@H](C)C(=O)N[C@@H](C)C(=O)N[C@H](C(=O)N[C@@H](CC(C)C)C(N)=O)C(C)C)C(C)C)[C@@H](C)O [[DAla2]PACAP(1-27)]
